Converted amounts (≈) assume the structure as drawn.
Assays:
Type in all cases: cell-based
[1] = test system: P. falciparum 3D7 (chloroquine-sensitive); test: Anti-malarial activity, P. falciparum 3D7 culture, 72 hour, DNA content by flow cytometry; conditions: synchronized ring-stage parasites
Outline: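 Magnet-synchronized ring-stage parasites in RPMI 1640/Albumax II were plated at 0.5% parasitemia, 4% final hematocrit, with compound added as 2× dilutions (2.5 μM to 20 nM) for 72 h. Fixed, Triton-permeabilized cells were stained with SYTOX Green (5 μM final), and DNA content was measured by flow cytometry to derive IC50.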

[2] = test system: P. falciparum DD2 (chloroquine-resistant); test: Anti-malarial activity, P. falciparum DD2 culture, 72 hour, DNA content by flow cytometry; conditions: synchronized ring-stage parasites
Procedure: Numerous compounds were screened in cultures of the malaria parasite P. falciparum 3D7 (chloroquine-sensitive) and DD2 (chloroquine-resistant). The compounds were also screened for toxixcity against 3T3 cells, HepG2 cells, and in a hemolysis assay. In brief, P. falciparum parasites were cultured in RPMI 1640 (Invitrogen) supplemented with Albumax II (Invitrogen). For synchronization, schizont stage parasites were magnet purified using a SuperMACS™ II Cell Separation Unit (Miltenyi Biotech). For IC50 determinations, synchronized ring-stage parasites were plated at 0.5% parasitemia and 8% hematocrit in 96-well plates at a total volume of 50 μL. Serial dilutions of 2× concentration of the respective compound, ranging from 2.5 μM to 20 nM, were added to the wells to bring the total volume up to 100 μL and 4% hematocrit. Compounds were assayed for a 72 hour period, after which the cultures were fixed with a solution of 4% paraformaldehyde and 0.08% glutaraldhyde in PBS. The cells were then permeabilized with 0.25% Triton X-100, and SYTOX Green Nucleic Acid Stain (Invitrogen) in PBS was added to a final concentration of 5 μM. DNA content, as an indicator of parasitemia, was analyzed on an Accuri C6 Flow Cytometer with C-Sampler. IC50 curves were generated using GraphPad Prism (GraphPad Software).

[3] = Cytotoxicity against 3T3 cells; conditions: mouse, 3T3 cells; read-out: Cytotoxicity 3T3 EC50
[4] = Cytotoxicity against HepG2 cells; conditions: human, HepG2 cells; read-out: Cytotoxicity HepG2 EC50
in vitro = test: in vitro
3T3 cells = test: Cytotoxicity against 3T3 cells
HepG2 cells = test: Cytotoxicity against HepG2 cells
[5] = Plasmodium falciparum, 3D7, 72 h

| Compound | IC50 [1, 5] [µM] | IC50 ([2]; Plasmodium falciparum) [µM] | EC50 [3] [µM] | EC50 [4] [µM] | EC50 (in vitro) [µg/mL] | IC50 [1] [µM] | IC50 [2] [µM] | EC50 (3T3 cells) [µM] | EC50 (HepG2 cells) [µM] |
| --- | --- | --- | --- | --- | --- | --- | --- | --- | --- |
| N=C(N)NCCc1cccc(NC(=O)c2cc(C(=O)Nc3cccc(CCNC(=N)N)c3)ncn2)c1 [Compound 100] | 0.035 | 0.135 | 769 | 830 | > 1000 |  |  |  |  |
| N#Cc1cccc(C(=O)Nc2cc(C(F)(F)F)cc(NC(=O)c3cc(C(=O)Nc4cc(C(F)(F)F)cc(NC(=O)c5cccc(C#N)c5)c4SCCN)ncn3)c2SCCN)c1 [Compound 101] | 0.047 | 0.113 | 74.4 | 27 | 583 (≈ 653 µM) |  |  |  |  |
| N=C(N)NCCCCOc1cc(OCCCCNC(=N)N)c(C(F)(F)F)cc1NC(=O)c1cc(C(=O)Nc2cc(C(F)(F)F)c(OCCCCNC(=N)N)cc2OCCCCNC(=N)N)ncn1 [Compound 104] | 0.2 | 0.301 | 25 | 39 | 2 (≈ 2.06 µM) |  |  |  |  |
| CC(C)(C)c1cc(NC(=O)CCCCNS(C)(=O)=O)c(SCCNS(C)(=O)=O)c(NC(=O)c2cccc(C(=O)Nc3cc(C(C)(C)C)cc(NC(=O)CCCCNS(C)(=O)=O)c3SCCNS(C)(=O)=O)c2)c1 [Compound 107] | 0.295 | 0.484 | > 1000 | > 1000 | > 1000 |  |  |  |  |
| CC(=O)Nc1cc(C(C)(C)C)cc(NC(=O)c2cccc(C(=O)Nc3cc(C(C)(C)C)cc(NC(C)=O)c3SCCN)c2)c1SCCN [Compound 108] |  |  |  |  |  | 0.306 | 0.419 |  |  |
| CC(C)(C)c1cc(NC(=O)c2cccc(C(=O)Nc3cc(C(C)(C)C)cc(NC(=O)C(N)Cc4ccccc4)c3SCCN)c2)c(SCCN)c(NC(=O)C(N)Cc2ccccc2)c1 (centres unmarked) [Compound 109] |  |  |  |  |  | 0.438 | 0.601 |  |  |
| CC(C)(C)c1cc(N)c(SCCN)c(NC(=O)c2cccc(C(=O)Nc3cc(C(C)(C)C)cc(N)c3SCCN)c2)c1 [Compound 110] |  |  |  |  |  | 0.563 | 0.74 |  |  |
| N=C(N)N1CCC(Oc2cc(OC3CCN(C(=N)N)C3)c(C(F)(F)F)cc2NC(=O)c2cc(C(=O)Nc3cc(C(F)(F)F)c(O[C@@H]4CCN(C(=N)N)C4)cc3O[C@@H]3CCN(C(=N)N)C3)ncn2)C1 (some centres unmarked) [Compound 111] | 0.61 | 0.431 | 32 | 84 | 65 (≈ 67.5 µM) |  |  |  |  |
| NCCOc1c(N)cc(C(F)(F)F)cc1NC(=O)c1cccc(C(=O)Nc2cc(C(F)(F)F)cc(N)c2OCCN)c1 [Compound 112] |  |  |  |  |  | 0.653 | 0.993 |  |  |
| CC(C)(C)c1cc(N)c(SCCCC(=N)N)c(NC(=O)c2cccc(C(=O)Nc3cc(C(C)(C)C)cc(N)c3SCCCC(=N)N)c2)c1 [Compound 113] |  |  |  |  |  | 0.668 | 0.611 |  |  |
| CN(CCCCC(=O)Nc1cc(C(C)(C)C)cc(NC(=O)c2cccc(C(=O)Nc3cc(C(C)(C)C)cc(NC(=O)CCCCN(C)c4ccccn4)c3SCCN)c2)c1SCCN)c1ccccn1 [Compound 118] |  |  |  |  |  | 0.74 | 1.15 |  |  |
| N=C(N)NCCCCC(=O)Nc1cc(C(F)(F)F)cc(NC(=O)c2cc(C(=O)Nc3cc(C(F)(F)F)cc(NC(=O)CCCCNC(=N)N)c3SCCN)[nH]n2)c1SCCN [Compound 119] |  |  |  |  |  | 0.87 | 0.688 |  |  |
| N=C(N)NCCSc1ccc(NC(=O)Nc2ccc(SCCN)c(C(F)(F)F)c2)cc1C(F)(F)F [Compound 130] |  |  |  |  |  |  | 0.976 |  |  |
| N=C(N)NCCCOc1cc(OCCCNC(=N)N)c(-c2ccc(C(F)(F)F)cc2)cc1-c1ccc(C(F)(F)F)cc1 [Compound 144] |  | 0.247 | 27 | 90 | 3 (≈ 5.03 µM) |  |  |  |  |
| NCCCOc1c(-c2cccc(C(F)(F)F)c2)cc(-c2cccc(C(F)(F)F)c2)c(OCCCN)c1-c1cccc(C(F)(F)F)c1 [Compound 145] |  | 0.658 | 14 | 28 | 6 (≈ 9.14 µM) |  |  |  |  |
| NC1CCC(N2CCc3ccc(NC(=O)c4cc(C(=O)Nc5ccc6c(c5)CCN(C5CCC(N)CC5)CC6)ncn4)cc3CC2)CC1 (centres unmarked) [Compound 148] |  | 0.081 | > 1000 | > 1000 | > 1000 |  |  |  |  |

| Compound | IC50 [1, 5] [µM] | IC50 ([2]; Plasmodium falciparum) [µM] | EC50 [3] [µM] | EC50 [4] [µM] | EC50 (in vitro) [µg/mL] | IC50 [1] [µM] | IC50 [2] [µM] | EC50 (3T3 cells) [µM] | EC50 (HepG2 cells) [µM] |
| --- | --- | --- | --- | --- | --- | --- | --- | --- | --- |
| N=C(N)NCCN1CCc2ccc(NC(=O)c3cc(C(=O)Nc4ccc5c(c4)CCN(CCNC(=N)N)CC5)ncn3)cc2CC1 [Compound 150] |  | 0.53 | 168 | 157 | 197 (≈ 314 µM) |  |  |  |  |
| N=C(N)NCCCCN1CCc2ccc(NC(=O)c3cc(C(=O)Nc4ccc5c(c4)CCN(CCCCNC(=N)N)CC5)ncn3)cc2CC1 [Compound 151] |  | 0.563 | 469 | 408 | > 1000 |  |  |  |  |
| FC(F)(F)c1cc(NC2CCNCC2)ccc1Oc1ccc(Oc2ccc(NC3CCCNC3)cc2C(F)(F)F)cc1 (centres unmarked) [Compound 165] | 0.904 | 1.18 |  |  | 16 (≈ 26.9 µM) |  |  |  |  |
| CC(=O)NCCSc1c(NC(=O)CCCCNC(=N)N)cc(Br)cc1NC(=O)c1cc(C(=O)Nc2cc(Br)cc(NC(=O)CCCCNC(=N)N)c2SCCNC(C)=O)ncn1 [Compound 169] | 0.317 | 0.15 |  |  | 210 (≈ 205 µM) |  |  |  |  |
| COC(=O)CCSc1c(NC(=O)CCCCNC(=N)N)cc(C(F)(F)F)cc1NC(=O)c1cc(C(=O)Nc2cc(C(F)(F)F)cc(NC(=O)CCCCNC(=N)N)c2SCCC(=O)OC)ncn1 [Compound 171] | 0.893 | 0.524 |  |  |  |  |  |  |  |
| COc1cc(SCCN)c(C(F)(F)F)cc1NC(=O)Nc1cc(C(F)(F)F)c(SCCN)cc1OC [Compound 277] |  |  |  |  |  | 0.57 |  | 31 | 64 |
| CC1(C)c2cc(-c3cccc(CCN)c3)ccc2-c2ccc(-c3cccc(CCN)c3)cc21 [Compound 281] |  |  |  |  |  | > 0.1 |  | 2 | 5 |
| CCn1c2ccc(C3=CCNCC3)cc2c2cc(C3=CCNCC3)ccc21 [Compound 282] |  |  |  |  |  | > 0.1 |  | 57 | 126 |
| CCn1c2ccc(C3CCNCC3)cc2c2cc(C3CCNCC3)ccc21 [Compound 283] |  |  |  |  |  | > 0.1 |  | 153 | 284 |
| CCn1c2ccc(C3CCN(C(=N)N)CC3)cc2c2cc(C3CCN(C(=N)N)CC3)ccc21 [Compound 285] |  |  |  |  |  | 0.086 |  | 587 | 815 |
| N=C(N)N1CC=C(c2ccc3sc4ccc(C5=CCN(C(=N)N)CC5)cc4c3c2)CC1 [Compound 286] |  |  |  |  |  | 0.08 |  | 83 | 221 |
| CCn1c2ccc(C3=CCN(C(=N)N)CC3)cc2c2cc(C3=CCN(C(=N)N)CC3)ccc21 [Compound 287] |  |  |  |  |  | > 0.1 |  | 84 | 200 |
| N=C(N)NCCCn1c2ccc(C3=CCN(C(=N)N)CC3)cc2c2cc(C3=CCN(C(=N)N)CC3)ccc21 [Compound 289] |  |  |  |  |  | > 0.1 |  | 248 | 425 |
| c1cc2sc3ccc(N4CCNCC4)cc3c2cc1N1CCNCC1 [Compound 291] |  |  |  |  |  | > 0.1 |  | 345 | 410 |
| CCn1c2ccc(N3CCNCC3)cc2c2cc(N3CCNCC3)ccc21 [Compound 293] |  |  |  |  |  | > 0.1 |  | 469 | > 1000 |
| NCCSc1c(NC(=O)c2cc(C(=O)Nc3cc(C(F)(F)F)cc(NC(=O)c4cccs4)c3SCCN)ncn2)cc(C(F)(F)F)cc1NC(=O)c1cccs1 [Compound 311] |  |  |  |  |  | > 0.1 |  | 923 | 923 |

Source: US20150094294A1, “COMPOUNDS AND METHODS FOR TREATING MALARIA” (Cellceutix Corporation, priority 2012, published 2015)
